Experimental data published in patent US20240018123A1, “COMPOUND FOR INHIBITING OR DISINTEGRATING ANDROGEN RECEPTOR, AND PHARMACEUTICAL USE THEREOF” (KOREA RESEARCH INSTITUTE OF CHEMICAL TECHNOLOGY, priority 2020, published 2024).
Read-outs that look alike come from different tables or passages of the source.

Columns and labels:
[1] = biological target: T1, Androgen receptor (AR) (Homo sapiens, UniProt P10275, T878A); assay: Assessment of AR proteolytic activity (Western blotting of LNCap cell lysates); format: cell-based; conditions: 24 hours of treatment, Western blotting quantified with Image J; for remaining activity at 1 µM: read-out: Degradation (1 μM treated in LNCaP, % AR remaining)
T1 construct: 5.5×10^5 LNCap cells were injected into each well of a 6-well plate; endogenous in cells; host or cells: LNCaP
T1 sequence (P10275 1-920 T878A): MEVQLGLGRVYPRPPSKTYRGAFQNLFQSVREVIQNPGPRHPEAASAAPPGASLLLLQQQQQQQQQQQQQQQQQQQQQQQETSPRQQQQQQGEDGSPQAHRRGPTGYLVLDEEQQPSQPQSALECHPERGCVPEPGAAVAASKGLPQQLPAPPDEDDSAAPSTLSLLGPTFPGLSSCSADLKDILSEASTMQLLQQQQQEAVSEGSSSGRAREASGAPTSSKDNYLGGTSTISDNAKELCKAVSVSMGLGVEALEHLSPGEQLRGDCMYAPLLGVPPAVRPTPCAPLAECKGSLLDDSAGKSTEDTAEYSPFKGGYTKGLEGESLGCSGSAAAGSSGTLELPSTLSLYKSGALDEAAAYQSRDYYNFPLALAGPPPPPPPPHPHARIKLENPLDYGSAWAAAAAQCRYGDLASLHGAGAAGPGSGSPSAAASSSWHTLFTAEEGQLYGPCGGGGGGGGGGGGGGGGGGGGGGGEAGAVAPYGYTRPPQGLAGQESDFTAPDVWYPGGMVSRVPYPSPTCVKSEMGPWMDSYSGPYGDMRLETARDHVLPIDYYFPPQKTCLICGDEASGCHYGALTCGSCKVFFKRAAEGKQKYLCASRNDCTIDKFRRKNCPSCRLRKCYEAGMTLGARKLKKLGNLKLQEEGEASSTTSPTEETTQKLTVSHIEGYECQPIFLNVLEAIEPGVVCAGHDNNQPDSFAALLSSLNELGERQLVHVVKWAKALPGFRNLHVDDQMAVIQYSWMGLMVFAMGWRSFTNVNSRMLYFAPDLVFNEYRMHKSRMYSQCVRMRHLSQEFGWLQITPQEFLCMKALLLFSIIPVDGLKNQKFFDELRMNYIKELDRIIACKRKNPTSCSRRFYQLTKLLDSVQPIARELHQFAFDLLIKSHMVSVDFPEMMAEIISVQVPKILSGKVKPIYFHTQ
Summary of the method: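 LNCap cells seeded at 5.5×10^5 per well and treated with compound for 24 hours. Lysates prepared in RIPA buffer (pH 7.5, with protease inhibitors). AR protein levels assessed by Western blot with densitometric quantification.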

[2] = tested on: VCaP cells
[3] = tested on: VCaP cells; assay: Cytotoxicity assessment (Cell-titer-glo cell viability), VCaP
[4] = read-out: VCaP (CC50), VCaP cells, 6 days of treatment, Cell-titer-glo, vs DMSO
[5] = Homo sapiens, VCaP, 144 h, read-out: VCaP (CC50, μM)

Row | remaining activity at 1 µM [1] | SMILES | Degradation (1 μM treated in LNCaP, % AR remaining) [1] | CC50 [2] | CC50 [3, 4] | CC50 [3, 5]
1 | – | CC1(C)C(NC(=O)c2ccc(-c3cnn(C4CCN(CC5CCN(c6ccc7nnn(C8CCC(=O)NC8=O)c(=O)c7c6)CC5)CC4)c3)cc2)C(C)(C)C1Oc1ccc(C#N)c(Cl)c1 (centres unmarked) [Example 84, N-((1r,3r)-3-(3-chloro-4-cyanophenoxy)-2,2,4,4-tetramethylcyclobutyl)-4-(1-(1-((1-(3-(2,6-dioxopiperidin-3-yl)-4-oxo-3,4-dihydrobenzo[d][1,2,3]triazin-6-yl)piperidin-4-yl)methyl)piperidin-4-yl)-1H-pyrazol-4-yl)benzamide] | 18% | 15.4 nM | – | –
2 | – | CC1(C)C(NC(=O)c2ccc(N3CCN(C(=O)C4CN(c5ccc6nnn(C7CCC(=O)NC7=O)c(=O)c6c5)C4)CC3)cc2)C(C)(C)C1Oc1ccc(C#N)c(Cl)c1 (centres unmarked) [Example 43, N-((1r,3r)-3-(3-chloro-4-cyanophenoxy)-2,2,4,4-tetramethylcyclobutyl)-4-(4-(1-(3-(2,6-dioxopiperidin-3-yl)-4-oxo-3,4-dihydrobenzo[d][1,2,3]triazin-6-yl)azetidine-3-carbonyl)piperazin-1-yl)benzamide] | 33.6% | 37.3 nM | – | –
3 | – | CC1(C)C(NC(=O)c2ccc(C#CCC3CCN(CC4CCN(c5ccc6nnn(C7CCC(=O)NC7=O)c(=O)c6c5)CC4)CC3)cc2)C(C)(C)C1Oc1ccc(C#N)c(Cl)c1 (centres unmarked) [Example 88, N-((1r,3r)-3-(3-chloro-4-cyanophenoxy)-2,2,4,4-tetramethylcyclobutyl)-4-(3-(1-((1-(3-(2,6-dioxopiperidin-3-yl)-4-oxo-3,4-dihydrobenzo[d][1,2,3]triazin-6-yl)piperidin-4-yl)methyl)piperidin-4-yl)prop-1-yn-1-yl)benzamide] | 14% | 14.5 nM | – | –
4 | – | CC1(C)C(NC(=O)c2ccc(C#CCC3CCN(C(=O)C4CN(c5ccc6nnn(C7CCC(=O)NC7=O)c(=O)c6c5)C4)CC3)cc2)C(C)(C)C1Oc1ccc(C#N)c(Cl)c1 (centres unmarked) [Example 87, N-((1r,3r)-3-(3-chloro-4-cyanophenoxy)-2,2,4,4-tetramethylcyclobutyl)-4-(3-(1-(1-(3-(2,6-dioxopiperidin-3-yl)-4-oxo-3,4-dihydrobenzo[d][1,2,3]triazin-6-yl)azetidine-3-carbonyl)piperidin-4-yl)prop-1-yn-1-yl)benzamide] | 9% | 31.9 nM | – | –
5 | – | CC1(C)C(NC(=O)c2ccc(N3CC4CC3CN4C3CC4(CCN(C(=O)C5CCN(c6ccc7nnn(C8CCC(=O)NC8=O)c(=O)c7c6)CC5)CC4)C3)cc2)C(C)(C)C1Oc1ccc(C#N)c(Cl)c1 (centres unmarked) [Example 71, N-((1r,3r)-3-(3-chloro-4-cyanophenoxy)-2,2,4,4-tetramethylcyclobutyl)-4-(5-(7-(1-(3-(2,6-dioxopiperidin-3-yl)-4-oxo-3,4-dihydrobenzo[d][1,2,3]triazin-6-yl)piperidine-4-carbonyl)-7-azaspiro[3.5]nonan-2-yl)-2,5-diazabicyclo[2.2.1]heptan-2-yl)benzamide] | 37% | – | 0.0705 µM | –
6 | – | CC1(C)C(NC(=O)c2ccc(N3CCN(CC4CCN(CCNC(=O)C5CCN(c6ccc7nnn(C8CCC(=O)NC8=O)c(=O)c7c6)CC5)CC4)CC3)cc2)C(C)(C)C1Oc1ccc(C#N)c(Cl)c1 (centres unmarked) [Example 68, N-(2-(4-((4-(4-(((1r,3r)-3-(3-chloro-4-cyanophenoxy)-2,2,4,4-tetramethylcyclobutyl)carbamoyl)phenyl)piperazin-1-yl)methyl)piperidin-1-yl)ethyl)-1-(3-(2,6-dioxopiperidin-3-yl)-4-oxo-3,4-dihydrobenzo[d][1,2,3]triazin-6-yl)piperidine-4-carboxamide] | 26% | – | 0.162 µM | –
7 | 25% | CC1(C)[C@H](NC(=O)c2ccc(N3CCN(CC4(F)CCN(c5ccc6nnn(C7CCC(=O)NC7=O)c(=O)c6c5)CC4)CC3)cc2)C(C)(C)[C@H]1Oc1ccc(C#N)c(Cl)c1 (some centres unmarked) [Example 61, N-((1r,3r)-3-(3-chloro-4-cyanophenoxy)-2,2,4,4-tetramethylcyclobutyl)-4-(4-((1-(3-(2,6-dioxopiperidin-3-yl)-4-oxo-3,4-dihydrobenzo[d][1,2,3]triazin-6-yl)-4-fluoropiperidin-4-yl)methyl)piperazin-1-yl)benzamide] | – | – | – | 0.29 µM
8 | – | CC1(C)C(NC(=O)c2cnc(N3CCN(CC4CCN(c5ccc6nnn(C7CCC(=O)NC7=O)c(=O)c6c5)CC4)CC3)cn2)C(C)(C)C1Oc1ccc(C#N)c(Cl)c1 (centres unmarked) [Example 79, N-((1r,3r)-3-(3-chloro-4-cyanophenoxy)-2,2,4,4-tetramethylcyclobutyl)-5-(4-((1-(3-(2,6-dioxopiperidin-3-yl)-4-oxo-3,4-dihydrobenzo[d][1,2,3]triazin-6-yl)piperidin-4-yl)methyl)piperazin-1-yl)pyrazine-2-carboxamide] | 45% | – | 0.2 µM | –
9 | – | CC1(C)[C@H](NC(=O)c2ccc(C3CCN(CCOC4CCN(C(=O)C5CCN(c6ccc7nnn(C8CCC(=O)NC8=O)c(=O)c7c6)CC5)CC4)CC3)cc2)C(C)(C)[C@H]1Oc1ccc(C#N)c(Cl)c1 (some centres unmarked) [Example 74, N-((1r,3r)-3-(3-chloro-4-cyanophenoxy)-2,2,4,4-tetramethylcyclobutyl)-4-(1-(2-((1-(1-(3-(2,6-dioxopiperidin-3-yl)-4-oxo-3,4-dihydrobenzo[d][1,2,3]triazin-6-yl)piperidine-4-carbonyl)piperidin-4-yl)oxy)ethyl)piperidin-4-yl)benzamide] | 20% | – | 0.0732 µM | –
10 | – | CC1(C)[C@H](NC(=O)c2ccc(C3CCN(CC4CCN(C(=O)C5CCN(c6ccc7nnn(C8CCC(=O)NC8=O)c(=O)c7c6)CC5)CC4)CC3)cc2)C(C)(C)[C@H]1Oc1ccc(C#N)c(Cl)c1 (some centres unmarked) [Example 51, N-((1r,3r)-3-(3-chloro-4-cyanophenoxy)-2,2,4,4-tetramethylcyclobutyl)-4-(1-((1-(1-(3-(2,6-dioxopiperidin-3-yl)-4-oxo-3,4-dihydrobenzo[d][1,2,3]triazin-6-yl)piperidine-4-carbonyl)piperidin-4-yl)methyl)piperidin-4-yl)benzamide] | 10.4% | – | 0.228 µM | –
11 | 6.8% | CC1(C)[C@H](NC(=O)c2ccc(C3CCN(CC4CCN(c5ccc6nnn(C7CCC(=O)NC7=O)c(=O)c6c5)CC4)CC3)cc2)C(C)(C)[C@H]1Oc1ccc(C#N)c(Cl)c1 (some centres unmarked) [Example 50, N-((1r,3r)-3-(3-chloro-4-cyanophenoxy)-2,2,4,4-tetramethylcyclobutyl)-4-(1-((1-(3-(2,6-dioxopiperidin-3-yl)-4-oxo-3,4-dihydrobenzo[d][1,2,3]triazin-6-yl)piperidin-4-yl)methyl)piperidin-4-yl)benzamide] | – | – | – | 0.223 µM
12 | – | CC1(C)C(NC(=O)c2ccc(N3CCN(CC4CCN(c5ccc6nnn(C7CCC(=O)NC7=O)c(=O)c6c5)CC4)CC3)nc2)C(C)(C)C1Oc1ccc(C#N)c(Cl)c1 (centres unmarked) [Example 78, N-((1r,3r)-3-(3-chloro-4-cyanophenoxy)-2,2,4,4-tetramethylcyclobutyl)-6-(4-((1-(3-(2,6-dioxopiperidin-3-yl)-4-oxo-3,4-dihydrobenzo[d][1,2,3]triazin-6-yl)piperidin-4-yl)methyl)piperazin-1-yl)nicotinamide] | 24% | – | 0.00768 µM | –
13 | – | CC1(C)[C@H](NC(=O)c2ccc(N3CCN(C(=O)CNc4ccc5nnn(C6CCC(=O)NC6=O)c(=O)c5c4)CC3)cc2)C(C)(C)[C@H]1Oc1ccc(C#N)c(Cl)c1 (some centres unmarked) [Example 40, N-((1r,3r)-3-(3-chloro-4-cyanophenoxy)-2,2,4,4-tetramethylcyclobutyl)-4-(4-((3-(2,6-dioxopiperidin-3-yl)-4-oxo-3,4-dihydrobenzo[d][1,2,3]triazin-6-yl)glycyl)piperazin-1-yl)benzamide] | 19.7% | – | 0.0243 µM | –
